From patent US12539292B2, “BRM targeting compounds and associated methods of use” (Arvinas Operations, Inc., priority 2018, dated 2026)
Read-outs that look alike come from different tables or passages of the source.

Molecular target: T1, BRM (Homo sapiens, UniProt P51531)
T1 construct: In-Cell Western Screen of BRM Degradation in SW1573 Cells; endogenous in cells; host or cells: SW1573
Test: In-cell Western screen of BRM degradation in SW1573 cells (Dmax and DC50)
Assay type: cell-based
Procedure, shortened: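 BRM levels were read by LI-COR in-cell Western after two-channel (800/680 nm) immunostaining of fixed, Triton-permeabilised SW1573 cells.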

[1] = BRM degradation, SW1573 cells, read-out: DC50
[2] = BRM degradation, SW1573 cells, read-out: Dmax (% degraded)
[3] = BRM degradation, SW1573 cells, when tested at the top concentration of between 0.3 and 10 μM, read-out: Dmax (%) (% degraded)
[4] = BRM degradation, SW1573 cells, Table 2D, read-out: **Dmax (%) (% degraded)
[5] = BRM degradation, SW1573 cells, Table 2D, read-out: *DC50

T1 sequence (P51531 whole entry): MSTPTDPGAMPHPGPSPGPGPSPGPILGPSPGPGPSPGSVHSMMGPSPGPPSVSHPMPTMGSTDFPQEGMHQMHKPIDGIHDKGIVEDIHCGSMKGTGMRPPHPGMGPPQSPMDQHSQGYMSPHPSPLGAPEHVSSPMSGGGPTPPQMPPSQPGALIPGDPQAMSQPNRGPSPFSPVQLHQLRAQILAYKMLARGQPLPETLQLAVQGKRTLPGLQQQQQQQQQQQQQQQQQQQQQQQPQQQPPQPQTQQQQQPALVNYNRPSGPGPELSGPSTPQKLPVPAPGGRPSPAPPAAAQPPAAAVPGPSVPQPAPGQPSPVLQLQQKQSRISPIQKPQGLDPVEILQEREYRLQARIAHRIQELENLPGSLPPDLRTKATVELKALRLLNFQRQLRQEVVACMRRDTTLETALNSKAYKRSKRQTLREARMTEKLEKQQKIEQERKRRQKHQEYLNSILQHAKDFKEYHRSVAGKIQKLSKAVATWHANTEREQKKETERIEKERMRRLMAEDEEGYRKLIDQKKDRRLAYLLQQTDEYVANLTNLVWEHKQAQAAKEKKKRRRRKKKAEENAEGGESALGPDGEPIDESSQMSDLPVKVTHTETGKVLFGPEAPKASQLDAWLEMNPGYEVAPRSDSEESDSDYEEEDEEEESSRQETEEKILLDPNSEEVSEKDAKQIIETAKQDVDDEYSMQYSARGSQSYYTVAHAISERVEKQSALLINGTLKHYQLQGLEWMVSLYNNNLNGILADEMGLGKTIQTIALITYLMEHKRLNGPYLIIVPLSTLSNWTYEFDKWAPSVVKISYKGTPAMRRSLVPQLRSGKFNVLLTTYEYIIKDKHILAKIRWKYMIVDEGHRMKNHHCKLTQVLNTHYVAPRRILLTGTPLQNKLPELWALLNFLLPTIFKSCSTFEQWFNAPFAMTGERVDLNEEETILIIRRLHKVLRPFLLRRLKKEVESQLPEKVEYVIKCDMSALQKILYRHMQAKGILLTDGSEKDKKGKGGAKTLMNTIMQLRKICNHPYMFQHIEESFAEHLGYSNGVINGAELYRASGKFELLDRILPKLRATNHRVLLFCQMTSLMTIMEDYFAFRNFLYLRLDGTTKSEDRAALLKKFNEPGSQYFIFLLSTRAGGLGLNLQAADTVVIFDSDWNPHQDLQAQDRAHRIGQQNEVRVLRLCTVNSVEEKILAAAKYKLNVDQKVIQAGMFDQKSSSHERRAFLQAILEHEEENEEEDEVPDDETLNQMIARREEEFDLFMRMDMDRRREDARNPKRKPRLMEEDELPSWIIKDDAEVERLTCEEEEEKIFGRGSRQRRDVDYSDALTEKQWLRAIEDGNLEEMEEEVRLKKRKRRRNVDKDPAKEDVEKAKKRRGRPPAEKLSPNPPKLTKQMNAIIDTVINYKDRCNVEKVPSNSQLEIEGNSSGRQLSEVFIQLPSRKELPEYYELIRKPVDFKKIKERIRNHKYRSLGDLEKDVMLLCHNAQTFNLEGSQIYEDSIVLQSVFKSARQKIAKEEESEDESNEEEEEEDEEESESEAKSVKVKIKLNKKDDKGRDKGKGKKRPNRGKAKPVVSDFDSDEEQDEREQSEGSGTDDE

How did the DC50 [1] turn out when Cc1ncsc1-c1ccc([C@H](C)NC(=O)[C@@H]2C[C@@H](O)CN2C(=O)[C@@H](c2cc(OCCN3CC[C@@H](O[C@H]4C[C@H](Oc5cc(N6C7CCC6CN(c6cc(-c8ccccc8O)nnc6N)C7)ccn5)C4)C[C@@H]3C)no2)C(C)C)cc1 [compound 627, (2S,4R)-1-((2R)-2-(3-(2-((2S,4R)-4-((1r,3R)-3-((4-(3-(3-amino-6-(2-hydroxyphenyl)pyridazin-4-yl)-3,8-diazabicyclo[3.2.1]octan-8-yl)pyridin-2-yl)oxy)cyclobutoxy)-2-methylpiperidin-1-yl)ethoxy)isoxazol-5-yl)-3-methylbutanoyl)-4-hydroxy-N-((S)-1-(4-(4-methylthiazol-5-yl)phenyl)ethyl)pyrrolidine-2-carboxamide] was run?
The DC50 was less than 2.5 nM.

What about the Dmax [2] of the same molecule?
The Dmax was greater than 75%.

Cc1ncsc1-c1ccc([C@H](C)NC(=O)[C@@H]2C[C@@H](O)CN2C(=O)[C@@H](c2cc(OCCC3CCN(C[C@H]4C[C@H](C#CC(C)n5cc(-c6cc(-c7ccccc7O)nnc6N)cn5)C4)CC3)no2)C(C)C)cc1 (stereo partly drawn) [compound 632, (2S,4R)-1-((2S)-2-(3-(2-(1-(((1r,3S)-3-(3-(4-(3-amino-6-(2-hydroxyphenyl)pyridazin-4-yl)-1H-pyrazol-1-yl)but-1-yn-1-yl)cyclobutyl)methyl)piperidin-4-yl)ethoxy)isoxazol-5-yl)-3-methylbutanoyl)-4-hydroxy-N-((S)-1-(4-(4-methylthiazol-5-yl)phenyl)ethyl)pyrrolidine-2-carboxamide] was tested. Which DC50 [1] did it give?
Its DC50 is less than 2.5 nM.

What about the Dmax [2] of the same molecule?
Its Dmax is greater than 75%.

Which results are given for Cc1ncsc1-c1ccc([C@H](C)NC(=O)[C@@H]2C[C@@H](O)CN2C(=O)[C@@H](c2cc(OCCN3CCN(CCOc4cc(N5C6CCC5CN(c5cc(-c7ccccc7O)nnc5N)C6)ccn4)C[C@@H]3C)no2)C(C)C)cc1 [compound 141, (2S,4R)-1-((2R)-2-(3-(2-((2S)-4-(2-((4-(3-(3-amino-6-(2-hydroxyphenyl)pyridazin-4-yl)-3,8-diazabicyclo[3.2.1]octan-8-yl)pyridin-2-yl)oxy)ethyl)-2-methylpiperazin-1-yl)ethoxy)isoxazol-5-yl)-3-methylbutanoyl)-4-hydroxy-N-((S)-1-(4-(4-methylthiazol-5-yl)phenyl)ethyl)pyrrolidine-2-carboxamide]?
DC50 [1]: < 2.5 nM; Dmax [3]: > 75%

For Cc1ncsc1-c1ccc([C@H](CCCC(=O)O)NC(=O)[C@@H]2C[C@@H](O)CN2C(=O)C(c2cc(OCCN3CCC(O[C@H]4C[C@H](Oc5cc(N6C7CCC6CN(c6cc(-c8ccccc8O)nnc6N)C7)ccn5)C4)CC3)no2)C(C)C)cc1 (stereo partly drawn) [compound 687, (5S)-5-((2S,4R)-1-(2-(3-(2-(4-((1r,3r)-3-((4-(3-(3-amino-6-(2-hydroxyphenyl)pyridazin-4-yl)-3,8-diazabicyclo[3.2.1]octan-8-yl)pyridin-2-yl)oxy)cyclobutoxy)piperidin-1-yl)ethoxy)isoxazol-5-yl)-3-methylbutanoyl)-4-hydroxypyrrolidine-2-carboxamido)-5-(4-(4-methylthiazol-5-yl)phenyl)pentanoic acid], which DC50 [1] is on record?
The DC50 was greater than 30 nM.

For Cc1ncsc1-c1ccc([C@H](C)NC(=O)[C@@H]2C[C@@H](O)CN2C(=O)[C@@H](c2cc(OCCN3CCC(CCOc4cc(N5C6CCC5CN(c5cc(-c7ccccc7O)nnc5N)C6)ccn4)CC3)no2)C(C)C)cc1 [compound 554, (2S,4R)-1-((2R)-2-(3-(2-(4-(2-((4-(3-(3-amino-6-(2-hydroxyphenyl)pyridazin-4-yl)-3,8-diazabicyclo[3.2.1]octan-8-yl)pyridin-2-yl)oxy)ethyl)piperidin-1-yl)ethoxy)isoxazol-5-yl)-3-methylbutanoyl)-4-hydroxy-N-((S)-1-(4-(4-methylthiazol-5-yl)phenyl)ethyl)pyrrolidine-2-carboxamide], which Dmax [4] is on record?
Its Dmax is greater than 75%.

What about the DC50 [5] of the same molecule?
Its DC50 is less than 2.5 nM.

With Cc1ncsc1-c1ccc([C@H](C)NC(=O)[C@@H]2C[C@@H](O)CN2C(=O)[C@@H](c2cc(OCC[C@H]3CCN(C[C@H]4C[C@H](Oc5cc(N6C7CCC6CN(c6cc(-c8ccccc8O)nnc6N)C7)ccn5)C4)C[C@H]3C)no2)C(C)C)cc1 (racemic) [compound 566, (2S,4R)-1-((2R)-2-(3-(2-((3S,4R)-1-(((1r,3S)-3-((4-(3-(3-amino-6-(2-hydroxyphenyl)pyridazin-4-yl)-3,8-diazabicyclo[3.2.1]octan-8-yl)pyridin-2-yl)oxy)cyclobutyl)methyl)-3-methylpiperidin-4-yl)ethoxy)isoxazol-5-yl)-3-methylbutanoyl)-4-hydroxy-N-((S)-1-(4-(4-methylthiazol-5-yl)phenyl)ethyl) pyrrolidine-2-carboxamide] as the molecule, how does the Dmax [4] read?
Its Dmax is greater than 75%.

What about the DC50 [5] of the same molecule?
The DC50 was less than 2.5 nM.

Which results are given for Cc1ncsc1-c1ccc(CNC(=O)[C@@H]2C[C@@H](O)CN2C(=O)[C@H](c2cc(OCCOCCOCCOCCOCCn3cc(-c4cc(-c5ccccc5O)nnc4N)cn3)no2)C(C)C)cc1 [compound 18, (2S,4R)-1-[(2S)-2-[3-[(14-[4-[3-amino-6-(2-hydroxyphenyl)pyridazin-4-yl]-1H-pyrazol-1-yl]-3,6,9,12-tetraoxatetradecan-1-yl)oxy]-1,2-oxazol-5-yl]-3-methylbutanoyl]-4-hydroxy-N-[[4-(4-methyl-1,3-thiazol-5-yl)phenyl]methyl]pyrrolidine-2-carboxamide]?
DC50 [1]: > 30 nM; Dmax [3]: 50 to 75%

For Cc1cc([C@H](C(=O)N2C[C@H](O)C[C@H]2C(=O)N[C@H](COCCOCCNc2ccc(-c3ccccc3O)nn2)c2ccc(-c3scnc3C)cc2)C(C)C)on1 [compound 524, (2S,4R)-4-hydroxy-N-((S)-2-(2-(2-((6-(2-hydroxyphenyl)pyridazin-3-yl)amino)ethoxy)ethoxy)-1-(4-(4-methylthiazol-5-yl)phenyl)ethyl)-1-((R)-3-methyl-2-(3-methylisoxazol-5-yl)butanoyl)pyrrolidine-2-carboxamide], which DC50 (BRM degradation, read-out: BRM DC50) is on record?
The DC50 was greater than 30 nM.

How did the DC50 [1] turn out when Cc1ncsc1-c1ccc([C@H](C)NC(=O)[C@@H]2C[C@@H](O)CN2C(=O)[C@@H](c2cc(N3CCC(CN4CCC(O[C@H]5C[C@H](Oc6cc(N7C8CCC7CN(c7cc(-c9ccccc9O)nnc7N)C8)ccn6)C5)CC4)CC3)no2)C(C)C)cc1F [compound 652, (2S,4R)-1-((2R)-2-(3-(4-((4-((1r,3r)-3-((4-(3-(3-amino-6-(2-hydroxyphenyl)pyridazin-4-yl)-3,8-diazabicyclo[3.2.1]octan-8-yl)pyridin-2-yl)oxy)cyclobutoxy)piperidin-1-yl)methyl)piperidin-1-yl)isoxazol-5-yl)-3-methylbutanoyl)-N-((S)-1-(3-fluoro-4-(4-methylthiazol-5-yl)phenyl)ethyl)-4-hydroxypyrrolidine-2-carboxamide] was run?
Its DC50 is less than 2.5 nM.

What about the Dmax [2] of the same molecule?
The Dmax was greater than 75%.

Which results are given for Cc1nccn1-c1ccc([C@H](C)NC(=O)[C@@H]2C[C@@H](O)CN2C(=O)[C@@H](c2cc(N3CCN(CC4CCN(C[C@H]5C[C@H](Oc6cc(N7C8CCC7CN(c7cc(-c9ccccc9O)nnc7N)C8)ccn6)C5)CC4)CC3)no2)C(C)C)cc1 [compound 437, (2S,4R)-1-((2R)-2-(3-(4-((1-(((1r,3r)-3-((4-(3-(3-amino-6-(2-hydroxyphenyl)pyridazin-4-yl)-3,8-diazabicyclo[3.2.1]octan-8-yl)pyridin-2-yl)oxy)cyclobutyl)methyl)piperidin-4-yl)methyl)piperazin-1-yl)isoxazol-5-yl)-3-methylbutanoyl)-4-hydroxy-N-((S)-1-(4-(2-methyl-1H-imidazol-1-yl)phenyl)ethyl)pyrrolidine-2-carboxamide]?
Dmax (SW1573, % degraded, when tested at the top concentration of between 0.3 and 10 μM, read-out: BRM Dmax (%)): > 75%; DC50 (degradation of BRM, read-out: BRM DC50): < 2.5 nM

Which results are given for Cc1ncsc1-c1ccc([C@H](C)NC(=O)[C@@H]2C[C@@H](O)CN2C(=O)[C@@H](c2cc(N3CCC[C@@H](CN4CCC(O[C@H]5C[C@H](Oc6cc(N7C8CCC7CN(c7cc(-c9ccccc9O)nnc7N)C8)ccn6)C5)CC4)C3)no2)C(C)C)cc1 (single isomer, unassigned) [compound 657]?
DC50 [1]: < 2.5 nM; Dmax [2]: > 75%

With CC(C)[C@H](C(=O)N1C[C@H](O)C[C@H]1C(=O)N[C@@H](C)c1ccc(-c2nncs2)cc1)c1cc(OCCN2CCC(O[C@H]3C[C@H](Oc4cc(N5C6CCC5CN(c5cc(-c7ccccc7O)nnc5N)C6)ccn4)C3)CC2)no1 [compound 363, (2S,4R)-N-((S)-1-(4-(1,3,4-thiadiazol-2-yl)phenyl)ethyl)-1-((2S)-2-(3-(2-(4-((1r,3S)-3-((4-(3-(3-amino-6-(2-hydroxyphenyl)pyridazin-4-yl)-3,8-diazabicyclo[3.2.1]octan-8-yl)pyridin-2-yl)oxy)cyclobutoxy)piperidin-1-yl)ethoxy)isoxazol-5-yl)-3-methylbutanoyl)-4-hydroxypyrrolidine-2-carboxamide] as the molecule, how does the DC50 (target protein degradation, read-out: BRM DC50) read?
Its DC50 is greater than 30 nM.

With Cc1ncsc1-c1ccc([C@H](C)NC(=O)[C@@H]2C[C@@H](O)CN2C(=O)[C@@H](c2cc(N3CCC4(CCN(C[C@H]5C[C@H](Oc6cc(N7C8CCC7CN(c7cc(-c9ccccc9O)nnc7N)C8)ccn6)C5)CC4)CC3)no2)C(C)C)cc1 [compound 646, (2S,4R)-1-((2R)-2-(3-(9-(((1r,3R)-3-((4-(3-(3-amino-6-(2-hydroxyphenyl)pyridazin-4-yl)-3,8-diazabicyclo[3.2.1]octan-8-yl)pyridin-2-yl)oxy)cyclobutyl)methyl)-3,9-diazaspiro[5.5]undecan-3-yl)isoxazol-5-yl)-3-methylbutanoyl)-4-hydroxy-N-((S)-1-(4-(4-methylthiazol-5-yl)phenyl)ethyl)pyrrolidine-2-carboxamide] as the molecule, how does the DC50 [1] read?
Its DC50 is less than 2.5 nM.

What about the Dmax [2] of the same molecule?
Its Dmax is greater than 75%.
